From US8314255B2, “Use of phthalimide and/or sulphonamide derivatives in the treatment of diseases which require reducing the TNF- α levels and an exogenous source of nitric oxide, phthalimide derivatives, sulphonamide derivatives, and a method for obtaining a sulphonamide derivative” (priority 2007, dated 2012)
Values joined by “and” are separate entries in the source; they are usually repeats but may differ in a detail not shown here. Identical values can stand only once.

How the values were obtained:
[1] = test system: Salmonella typhimurium TA100; assay: AMES test, mutagenic evaluation in Salmonella typhimurium TA100 strain with/without metabolic activation (S9); format: cell-based
Description: The procedure was firstly developed by (MARON, D. M. and AMES, B. N. Mut. Res. v. 113, pp. 173-215, 1983)
For this assay, Salmonella typhimurium TA100 and TA102 strains from the mutagenicity laboratory of the “Faculdade de Ciências Farmacêuticas—UNESP Araraquara” were used. Such strains have the following characteristics: (AMES, 1983)
The positive controls are mutagenic compounds specific for each strain and test condition, with 25 μL/plate of sodium azide (1.25 μg/plate) and 100 μL of mitomycin (0.5 μg/plate) being the controls for TA100 and TA102, respectively, in the absence of metabolic activation. For assays with metabolic activation, the positive control for TA100 is 50 μL 2-antramine (1.25 μg/plate) and for TA102 it is 50 μL 2-aminofluorene (1.25 μg/plate).
The preincubation method was used.
In laminar flow, Salmonella typhimurium (TA100 and TA 102) strains were inoculated individually with a platinum loop, in the respective nutrient broths and maintained at 37° C., under constant stirring (160 rpm) during 14 hours, in order to achieve a density of 1 to 2×10^9 bacteria/mL.
Different concentrations of the compounds were added into 100 μL of 0.2M phosphate buffer pH 7.4 (or 500 μL of the mixture S9 in metabolic activation assays) and incubated for 20-30 minutes at 37° C. Solutions containing the compounds had DMSO as the solvent. Thereafter, 2 mL of top agar supplemented with traces of histidine and biotin was added, homogenized and plated in glycosylated minimum medium. After solidification of the top agar, the plates were incubated for 48 hours at a 37° C. Then, the counting of the number of revertant colonies per plate was performed. All tested concentrations, positive and negative controls were run in triplicate.
After 48 hours, the revertant colonies were counted manually, and the protoCOL Colony Counter Version 3.15.630 (1998-2001) SYNBIOSIS LTD system was used for the positive control.
The final data obtained from the assay was analyzed using the statistical software Salanal (Salmonella Assay Analysis) version 1.0 from the Research Triangle Institute, RTP, North Carolina, USA. Such software allows the dose-response effect to be evaluated by means of analysis of variance (ANOVA-test F) computations between the measurement of the number of revertants at the different tested concentrations (doses) and the negative control, followed by a linear regression. The software model chosen for analyzing the data was Bernstein's (BERNSTEIN, L. et al. Mutat. Res. v. 97, p. 267-281, 1982). The slope of the straight line from the linear portion of the dose-response curve is also provided by this software and corresponds to the number of revertants induced per measurement unit of the analyzed sample.
From the results, the mutagenicity ratio (MR) was computed for each analyzed dose from each compound. MR is given by the following equation:
MR=average number of revertants per test plate (spontaneous+induced revertants) […] average number of revertants per plate of the negative control (spontaneous revertants)
The spontaneous growing means that the number of revertants which developed on the plate, regardless of being induced or not, wherein values higher or equal to 2 are considered as a positive response (VALENT, G. V. et al. Env. Toxicol. Water Quality. v. 8, p. 371-381, 1993).
The mutagenicity test with metabolic activation system was performed with a microsomal fraction S9 (S9 mix) prepared from a liver homogenizate from Sprague Dawley rats, previously treated with Aroclor 1254, acquired in the freeze-dried form.
The procedure for this assay is the same, however, instead of the buffer, 500 μL of the S9 mixture should be added.
The S9 mixture has a viability of 4 hours from preparation when put on ice. The plates are then incubated for 48 hours at 37° C. After the required time has elapsed, the counting of the revertant colonies was carried out. All tested concentrations, positive and negative controls were run in triplicate.

[2] = test system: leukocyte infiltration, peritonitis induced by thioglycolate; assay: Peritonitis assay induced by 3% thioglycolate; format: in vivo; conditions: 300 μMol/Kg orally, mouse, 3% thioglycolate i.p., 4 h
Description: In a second assay, the number of total leukocytes (10^6/mL) was evaluated in order to evaluate the ability to inhibit their infiltration in the inflammatory process.
The mice were treated with the substances being analyzed or carrier and after 1 h of oral administration, they were simultaneously subjected to the peritonitis assay, by administering intraperitoneally 1 ml of a 3% thioglycolate solution. 4 h after the administration of thioglycolate, the peritoneal cavity was washed with 3 ml of a HANKS solution (Balanced salt solution, free of Ca^2+ and Mg^2+). Next, the peritoneal wash was analyzed and the total counting of white blood cells was made in a Newbauer's chamber under an optical microscope with a 40× objective.

[3] = test system: abdominal writhing induced by acetic acid; assay: Abdominal writhing assay induced by acetic acid; format: in vivo; conditions: oral, mice, acetic acid 0.1N i.p. after 1 hour, writhings counted during 20 minutes
Description: In order to evaluate the peripheral analgesic activity of the compounds, an abdominal writhing assay induced by acetic acid (Table 6) was carried out. In this assay, we could infer that compound ID has an important analgesic activity, inhibiting abdominal writhing by 66%. […] The analgesic activity may be related to the ability of these compounds to inhibit the cytokine TNFα, since it is known that this would be one of the mechanisms that explain the analgesia of molecules such as thalidomide.
The antinociceptive profile was evaluated through the abdominal writhing assay induced by acetic acid in mice. In this assay, Swiss mice from both genders were used, weighing from 21 to 28 grams, fasted for a time period of about 8 hours. The test substance was administered orally and had, as a carrier, 5% gum arabic. After 1 hour, the administration of acetic acid 0.1N (0.1 mL/10 g weight) was performed in the peritoneal cavity of the animals. Ten minutes after the injection of acetic acid, writhings were counted during 20 minutes.

## O=C1c2ccccc2C(=O)N1c1ccc(CO[N+](=O)[O-])cc1 [ID, 4-(1,3-dioxo-1,3-dihydro-2H-isoindol-2-yl)benzyl nitrate]
[1]; TA 100, +S9, 0.224 μmol/plate
  mutagenicity ratio (MR): 1.21
  number of revertants per plate: 157 ± 13 revertants/plate
[1]; TA 100, +S9, 0.488 μmol/plate
  mutagenicity ratio (MR): 1.42
  number of revertants per plate: 184.7 ± 16 revertants/plate
[1]; TA 100, +S9, 0.896 μmol/plate
  mutagenicity ratio (MR): 1.67
  number of revertants per plate: 216.7 ± 18 revertants/plate
[1]; TA 100, +S9, 1.8 μmol/plate
  mutagenicity ratio (MR): 1.49
  number of revertants per plate: 192.7 ± 16 revertants/plate
[1]; TA 100, +S9, 3.58 μmol/plate
  mutagenicity ratio (MR): 2.03
  number of revertants per plate: 263 ± 12.3 revertants/plate
[1]; TA 100, −S9, 0.224 μmol/plate
  mutagenicity ratio (MR): 1.27
  number of revertants per plate: 228 ± 18 revertants/plate
[1]; TA 100, −S9, 0.488 μmol/plate
  mutagenicity ratio (MR): 1.33
  number of revertants per plate: 239 ± 11.5 revertants/plate
[1]; TA 100, −S9, 0.896 μmol/plate
  mutagenicity ratio (MR): 1.29
  number of revertants per plate: 231 ± 20.2 revertants/plate
[1]; TA 100, −S9, 1.8 μmol/plate
  mutagenicity ratio (MR): 1.18
  number of revertants per plate: 212.3 ± 17 revertants/plate
[1]; TA 100, −S9, 3.58 μmol/plate
  mutagenicity ratio (MR): 1.94
  number of revertants per plate: 349 ± 5.6 revertants/plate
[2]
  Cell Number avg (×106), total leukocytes: 3.8 ×106
  Inhibition % (leukocyte infiltrate): 32.14%
[3]
  Average (abdominal writhings): 16.2
  Inhibition % (abdominal writhing): 66% and 66.03%
